The nature of series [1]: Molar enthalpy of transition or fusion. The conditions noted are these: Crystal; DSC.
For series [2] the following is noted: Crystal; DSC.

± gives the expanded uncertainty stated by the source.

For `CC(=O)c1c(C)c([N+](=O)[O-])c(C(C)(C)C)c([N+](=O)[O-])c1C` [3',5'-dinitro-2',6'-dimethyl-4'-tert-butylacetophenone], the “Molar enthalpy of transition or fusion” value in series [1] is 5.69 ± 0.167 kcal/mol. Further, the Triple point temperature in series [2] was 409.5 ± 1 K.

(Values after the NIST ThermoML archive (doi:10.1021/acs.jced.9b00310).)
